The source of these data is ChEMBL document CHEMBL5500414 (J Med Chem, 2024).

Data set [1] in a line: Glutathione reactivity assessed as half life.
Data set [2] addresses Bcl-2-related protein A1 (Homo sapiens, UniProt Q16548, C55A). Nature of the data set: Binding affinity to BFL-1 C55A mutant (unknown origin) assessed as inhibition constant by fluorescence polarization assay. A general note: In fluorescence polarisation assays a small probe gives low polarisation when free and higher when bound to something large.
Data set [3] deals with T1, Bcl-2-related protein A1 (Homo sapiens, UniProt Q16548).
T1 sequence (Q16548 whole entry): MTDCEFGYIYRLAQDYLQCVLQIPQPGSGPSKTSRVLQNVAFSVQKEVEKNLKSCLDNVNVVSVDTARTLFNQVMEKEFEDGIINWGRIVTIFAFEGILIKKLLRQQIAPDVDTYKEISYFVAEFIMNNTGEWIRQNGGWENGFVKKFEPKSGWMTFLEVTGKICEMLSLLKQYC
Nature of the data set: Binding affinity to wild type human BFL-1 assessed as inhibition constant by SPR assay.

The test system of a further data set is MV4-11. Nature of the data set: Antiproliferative activity against human MV4-11 cells expressing high BCL-2 assessed as cell viability measured after 72 hrs by Cell Counting Kit-8 assay. As to conditions: MV4-11, 72 h. In general terms: Tetrazolium dyes change colour on reduction, which living cells bring about.
In another data set the test system is Pfeiffer. Nature of the data set: Antiproliferative activity against human Pfeiffer cells expressing high BCL-2/BFL-1 assessed as cell viability measured after 72 hrs by Cell Counting Kit-8 assay.
For the next data set, the target named is T2, BCL2A1/BID (Homo sapiens, UniProt Q16548).
T2 sequence (Q16548 whole entry): T1 sequence (Q16548 whole entry)
T2 sequence (P55957 whole entry): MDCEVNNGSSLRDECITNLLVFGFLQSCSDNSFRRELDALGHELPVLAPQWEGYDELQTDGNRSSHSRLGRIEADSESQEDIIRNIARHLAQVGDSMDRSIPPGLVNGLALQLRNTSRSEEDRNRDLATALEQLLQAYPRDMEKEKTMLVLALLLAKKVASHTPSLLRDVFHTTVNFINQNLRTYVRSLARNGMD

Data set [4] has as its target Induced myeloid leukemia cell differentiation protein Mcl-1/BH3-interacting domain death agonist (Homo sapiens, UniProt Q07820).
Description: Inhibition of MCL-1 (unknown origin)/FAM-BID (unknown origin) interaction measured by fluorescence polarization assay
Data set [5] concerns the target Induced myeloid leukemia cell differentiation protein Mcl-1 (Homo sapiens, UniProt Q07820). Nature of the data set: Binding affinity to MCL-1 (unknown origin) assessed as inhibition constant by time-resolved fluorescence resonance energy transfer binding affinity assays.

Induced myeloid leukemia cell differentiation protein Mcl-1/BH3-interacting domain death agonist, sequence (Q07820 whole entry, one chain of several, the tested form may be a part): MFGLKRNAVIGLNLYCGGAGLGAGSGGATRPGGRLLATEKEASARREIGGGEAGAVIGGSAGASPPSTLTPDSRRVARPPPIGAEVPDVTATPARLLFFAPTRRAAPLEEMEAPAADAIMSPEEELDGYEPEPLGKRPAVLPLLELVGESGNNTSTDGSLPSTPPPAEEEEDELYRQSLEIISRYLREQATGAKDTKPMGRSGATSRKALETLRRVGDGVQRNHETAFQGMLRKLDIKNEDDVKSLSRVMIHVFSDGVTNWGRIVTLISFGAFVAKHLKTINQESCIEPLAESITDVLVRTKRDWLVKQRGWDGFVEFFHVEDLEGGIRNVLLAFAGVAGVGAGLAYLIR
Induced myeloid leukemia cell differentiation protein Mcl-1, sequence (Q07820 whole entry): as the sequence (Q07820 whole entry, one chain of several, the tested form may be a part) above
Bcl-2-related protein A1 (Homo sapiens, UniProt Q16548, C55A), sequence (Q16548 whole entry C55A): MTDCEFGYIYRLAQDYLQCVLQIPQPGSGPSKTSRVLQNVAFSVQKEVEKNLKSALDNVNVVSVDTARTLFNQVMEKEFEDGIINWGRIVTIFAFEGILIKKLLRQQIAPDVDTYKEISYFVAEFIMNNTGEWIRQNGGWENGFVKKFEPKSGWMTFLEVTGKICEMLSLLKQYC

Consider `C=CC(=O)Nc1ccc2c(c1)CCC(CN1CCN(c3ccc(C(=O)O)c(Oc4cnc5[nH]ccc5c4)c3)CC1)=C2c1ccc(Cl)cc1CC`, for which the half-life (as a rule, how long it takes for the measured level to halve) in data set [1] is 4.27 h. Moreover, the Ki – broadly, a dissociation constant, usually derived from enzyme kinetics or from competition with a known ligand – on Bcl-2-related protein A1 [2] amounted to 1380 nM; at Bcl-2-related protein A1 [3], 1950 nM; on BCL2A1/BID, 105 nM; in data set [4], 1260 nM. In addition, the values for the IC50 with MV4-11 and in the data set with Pfeiffer were 12600 nM and 6920 nM, respectively.

Turning to `CC1(C)CCC(CN2CCN(c3ccc(C(=O)NS(=O)(=O)c4ccc(NCC5CCOCC5)c([N+](=O)[O-])c4)c(Oc4cnc5[nH]ccc5c4)c3)CC2)=C(c2ccc(Cl)cc2)C1` [VENETOCLAX], the Ki in data set [5] is over 444 nM; in data set [4] it was 3750 nM. In addition, the figures for the IC50 with MV4-11 and in the data set with Pfeiffer were 440 nM and 6260 nM, respectively.

`CN(C)C/C=C/C(=O)Nc1cc2c(Nc3ccc(F)c(Cl)c3)ncnc2cc1O[C@H]1CCOC1` [AFATINIB]: in data set [1], the half-life is 0.22 h.
